# Assay results published in patent US20250388535A1, “SULFONATED AND SULFATED ARYL-ALKYL COMPOUNDS USEFUL AS SURFACTANTS” (SPECIALTY OPERATIONS FRANCE, priority 2022, published 2025).
# Assay: Surface activity: critical micelle concentration and surface tension by force tensiometer
# Type: physicochemical
# Details: for CMC / Surface tension (at CMC): aqueous solution, room temperature; for Cross-sectional area: area occupied by the surfactant molecule at the surface; for Cross-sectional area / Surface excess: from Gibbs adsorption equation
# Procedure: Critical micelle concentrations (CMC) and surface tensions (ST) were measured for aqueous solutions of the surfactants of the present invention at room temperature using a force tensiometer (Sigma 700/701). Plots of surface tension against surfactant concentration were drawn allowing to determine CMC and surface tension at the CMC. Using the Gibbs adsorption equation it is possible to determine the surface excess as well as the area occupied by the surfactant molecule at the surface (as a reference see for example “Industrial Utilization of Surfactants: principles and practice”, M. J. Rosen and M. Dahanayake, 2000, ISBN 1893997111) which are important parameters to characterize a surfactant.
structure (smiles),measurement,value
CCCCCCCCCCCCCCC(C(=O)c1ccccc1)S(=O)(=O)[O-].[Na+] (centres unmarked) [PAKS-C16],CMC,0.23 mM
same,Surface tension (at CMC),44 mN/m
same,Cross-sectional area,0.64 nm^2
same,Surface excess,0.0026 mmol/m^2
CCCCCCCCCCCCCCC(C(O)c1ccccc1)S(=O)(=O)[O-].[Na+] (centres unmarked) [PAS-C16],CMC,0.22 mM
same,Surface tension (at CMC),36 mN/m
same,Cross-sectional area,0.53 nm^2
same,Surface excess,0.0031 mmol/m^2
